For data set [1] the following is noted: both, human, in vivo, po, 400 mg.
A further data set in a line: clinical. The settings on record: both, human, in vivo, po, 400 mg.
In another data set the test system is Vaccinia virus (NYCBH). In words: microbe, parasite or virus in culture. The class given is cell-based. Conditions: Orthopoxvirus vaccinia, Vero.
The next data set concerns Pichinde virus. The class given is cell-based.
Data set [2] deals with Rift Valley fever virus (strain MP12). It counts as cell-based.
In data set [3] the test system is respiratory syncytial virus. The class given is cell-based.
In another data set the test system is cytomegalovirus. The class given is cell-based.
In another data set the test system is Zaire 79 strain of MPX. The arrangement: species or system cynomolgus monkeys (Macaca fascicularis). Conditions: cynomolgus monkey, in vivo.
Another data set has as its system vaccinia virus (VV). The settings on record: read-out: 50% effective concentration [EC50], inhibition of virus replication, in vitro; cited from earlier work.
Another data set deals with cowpox virus (CV). The settings on record: read-out: 50% effective concentration [EC50], inhibition of virus replication, in vitro; cited from earlier work.
The test system of the next data set is ectromelia virus (ECTV). Conditions: read-out: 50% effective concentration [EC50], inhibition of virus replication; cited from earlier work.
Another data set has as its system monkeypox. Conditions: read-out: 50% effective concentration [EC50], inhibition of virus replication, in vitro; cited from earlier work.
In another data set the test system is camelpox. Conditions: read-out: 50% effective concentration [EC50], inhibition of virus replication; cited from earlier work.
The test system of a further data set is variola viruses. Conditions: read-out: 50% effective concentration [EC50], inhibition of virus replication, in vitro; cited from earlier work.
The next data set has as its system VV. Conditions: orally twice a day at 15 or 50 mg/kg of body weight for 5 days; intravenous VV; cited from earlier work.
The next data set deals with ECTV, VV, or CV. The settings on record: mouse, in vivo; cited from earlier work.

On to `O=C(NN1C(=O)C2C3C=CC(C4CC34)C2C1=O)c1ccc(C(F)(F)F)cc1` (single isomer, unassigned) [Form V, 4-trifluoromethyl-N-(3,3a,4,4a,5,5a,6,6a-octahydro-1,3-dioxo-4,6-ethenocycloprop[f]isoindol-2(1H)-yl)-benzamide], for which, in data set [1], the “Cmax, Median” value worked out at 1180 ng/mL; the “Tmax, Median” value was found to be 4 h; the “t1/2, Median” value turned out to be 16.647 h. This molecule also yielded an exposure (AUC) in “clinical” (AUC0-τ, Mean) of 20100 ng·h/mL. The AUC(0-inf) in the data set “clinical” (AUC0-∞, Mean) came out at 22000 ng·h/mL. In “clinical” (Mean), the Cmax was 1230 ng/mL and the Tmax is 3.8 h. The half-life in the data set “clinical” (t1/2, Mean) is 29.2 h.
For `O=C(NN1C(=O)C2C3C=CC(C4CC34)C2C1=O)c1ccc(C(F)(F)F)cc1` (single isomer, unassigned) [Form I, 4-trifluoromethyl-N-(3,3a,4,4a,5,5a,6,6a-octahydro-1,3-dioxo-4,6-ethenocycloprop[f]isoindol-2(1H)-yl)-benzamide], the inhibition at 5 µM in the data set on Vaccinia virus (NYCBH) (72 h, read-out: inhibition of vaccinia virus-induced CPE) was greater than 50%. In the data set on Vaccinia virus (NYCBH) (read-out: EC50 in the CPE assay), the EC50 was found to be 50 nM. Also, the “inhibition of replication of unrelated virus” value in the data set with Pichinde virus is given as “do not inhibit”. Moreover, the “inhibition of replication of unrelated virus” value in [2] is listed as “do not inhibit”. Moreover, in data set [3], the “inhibition of replication of unrelated virus” value is “do not inhibit”. Further, the “inhibition of replication of unrelated virus” value with cytomegalovirus was “do not inhibit”. In addition, in the data set on Zaire 79 strain of MPX, the “amount of viral DNA compared to vehicle-treated animals” value is “significantly decrease”, the “reduction in the level of virus replication compared to vehicle-treated group” value is recorded as “more than 1,000 fold” and the survival entry is given as “survive”. Further, in [1], the “AUC0-τ, Mean” value stood at 15624.5 ng·h/mL; the “AUC0-∞, Mean” value worked out at 19922.02 ng·h/mL; the “Cmax, Mean” value is listed as 1068.9 ng/mL; the “Tmax, Mean” value came out at 3.8 h. In addition, the “t1/2, Mean” value in data set [1] turned out to be 27.446 h. Moreover, in “clinical” (Median), the peak concentration (Cmax) stood at 1170 ng/mL and the Tmax stood at 3.5 h. In the data set “clinical” (t1/2, Median), this molecule had a half-life of 25.1 h.
`O=C(NN1C(=O)C2C3C=CC(C4CC34)C2C1=O)c1ccc(C(F)(F)F)cc1` (stereo not shown) [ST-246, 4-trifluoromethyl-N-(3,3a,4,4a,5,5a,6,6a-octahydro-1,3-dioxo-4,6-ethenocycloprop[f]isoindol-2(1H)-yl)-benzamide]: the EC50 with vaccinia virus (VV), in the data set on cowpox virus (CV), in the data set on ectromelia virus (ECTV), with monkeypox, in the data set with camelpox and with variola viruses was no more than 70 nM each time. For the same molecule, the tail lesions entry in the data set on VV is given as “significantly reduced”. Besides, the “preventing or reducing mortality” value with ECTV, VV, or CV is on record as “highly effective in preventing or reducing mortality”. Further, the “toxicity in animal models” value in the data set on ECTV, VV, or CV is “nontoxic”.

Source of the values: patent publication US12433868B2 (priority 2010, dated 2025).
